In patent EP0942896B1, “SUBSTITUTED PHENOLS AND THIOPHENOLS USEFUL AS ANTIOXIDANT AGENTS” (Aventis Pharmaceuticals Inc., priority 1996, dated 1998):
Read-outs that look alike come from different tables or passages of the source.

How the values were obtained:
oxidation of lipids = assay: Conjugated diene lag phase determination on pooled serum of treated rats; type: in vivo, Male Sprague-Dawley rats; conditions: not normalized, mean of 2 determinations of pooled rat serum (N = 5), diet 0.3%, 4 days
Description: (§1) A typical experiment consists of 4-6 groups of rats (N = 5 per group) with I group being a control which receives no MDL compound and the other groups being treated with 0.3% MDL compound. Some of the compounds are either repeated at 0.3% or evaluated again at the lower dose of 0.1%. House Male Sprague-Dawley rats, 50-100 g, (Harlan Laboratories, Indianapolis, IN) in groups of 5, feeding ad libitum water and Purina Rodent chow (#5002) with or without MDL compound as a dietary admixture for 4 days. Make dietary admixtures (0.3%) by mixing 1.2 grams of an MDL compound with 400 grams of Purina rodent chow (#5002). Mix the MDL compound with approximately 50 grams of food using a mortar and pestle. This is added to the remainder of the food and mixed for 3 hours on a rotary mixer. In the morning of day 5, anesthetize non-fasted rats with carbon dioxide, and collect blood by cardiac puncture. Sacrifice rats by cervical dislocation. Record body weights and liver weights in grams. Record food consumption as grams • day^-1 • rat^-1. Deaths are recorded as mortality. Use aliquots of fresh serum for clinical chemistries, thiobarbituric acid reactive substances (TBARS) and conjugated diene measurements. Freeze aliquots of serum (∼ 0.5mL) and whole livers at -20°C for compound and metabolite concentration determination at a later time.
Conjugated diene lag phase is another indicator of the oxidation of lipids. Lipids exposed to Cu^++ form conjugated dienes that absorb ultraviolet light in the range of 230 to 235 nm. The lag phase of diene formation gives an indication of the amount of oxidation of the lipids. A lag phase longer than control samples indicate inhibition of the oxidation. Determine conjugated diene lay phase using a Varian DMS200 spectrophotometer (fitted with a constant temperature, 5 cuvette sample changer) at 30°C. Add twenty (20) µL of pooled serum to cuvettes containing 3.0mL phosphate buffered saline, pH 7.5, and mix. Measure the absorbances of all cuvettes and set the instrument baseline to zero using the lowest absorbing sample. Next, add 100µL of 1 mmol CuSO4 and mix immediately. Record the absorbance of each cuvette at 2 min intervals for a period of 840 min. Capture the data and transfer to a Microsoft EXCEL® spreadsheet where the curves are smoothed and differentials obtained. Determine lag times mathematically as minutes. Pool serum samples (N = 5); data presented are the mean values of 2 determinations. Compare serum samples from treated rats to serum samples from control rats that received no MDL compound.

Male Sprague-Dawley Rats = assay: Serum clinical chemistries in rats fed compound as dietary admixture; type: in vivo; conditions: % of control, diet 0.3%, 4 days, N = 5; for ALT: alanine aminotransferase in rat serum; for ALP: alkaline phosphatase in rat serum; for AST: aspartate aminotransferase in rat serum; for GLUC: glucose in rat serum; for response vs control in vivo at 0.3 % in diet: feed or water, 96 h
Description: as §1
Allow blood to clot at room temperature for 30 minutes. Obtain serum after centrifugation for 10 min at 4°C at 3000 rpm in a Beckman J-6M/E centrifuge with a JS-4.2 rotor. Analyze fresh serum by a COBAS MIRA S autoanalyzer (Roche Diagnostics) using Roche diagnostic reagents for the following clinical chemistry measurements: alkaline phosphatase (ALP, kit # 44553), alanine transaminase (ALT, kit # 42375), aspartate aminotransferase (AST, kit # 42381), total cholesterol (CHOL, kit # 44334), triglyceride (TG, kit # 44120), and glucose (GLU, kit # 44558). Calculate ALP, ALT, and AST as units/L. Calculate cholesterol, triglycerides, and glucose as mg/dL.

[1] = HPLC quantitation of compound and metabolite concentration in rat serum and liver; type: in vivo; conditions: male, Sprague-Dawley, oral, 0.3 % in chow, diet 0.3%, 4 days, mean N = 5
Description: as §1
Determine serum and liver concentrations of parent compound and the metabolites, bisphenol and diphenoquinone, by reverse phase HPLC using a Waters 990 Powerline system. Homegenize livers (1 gram samples) with 5.0mL PBS, pH 7.4, using a Polytron tissue homogenizer at setting 5 for 20-30 seconds. Extract serum or liver homogenates as follows: add 100µL of either serum or homogenate to 2.0mL diethyl ether: ethanol (3:1) while vortexing the tube. Cap the sample tubes and centrifuge for 10 min at 5°C at 3500 rpm in a Beckman GPKR centrifuge with a GH 3.7 rotor. Transfer the supernatants to clean tubes and dry under N2. Reconstitute samples with 200µL of acetonitrile : hexane : 0.1 M ammonium acetate (90: 6.5 : 3.5, by vol.). Then, inject 100µL onto a Waters Deltapak C18-300 Å column, and elute with an 83% acetonitrile : 17% water mobile phase at a flow rate of 1.5mL/min. Record absorbances at the wavelengths of 240, 254, and 420nm. Calculate compound concentrations from known quantities of authentic parent compounds after correction for recovery. […]. Calculate concentrations as µg/mL of serum and µg/g of liver.

[2] = test system: oxidation of serum lipids; assay: TBARS assay on serum of treated rats (CuSO4-initiated oxidation); type: in vivo, Male Sprague-Dawley rats; conditions: % of control; thiobarbituric acid reactive substances as nmoles MDA, rat serum; diet 0.3%, 4 days; N = 5
Description: as §1
In this assay the oxidation of serum lipids is initiated with CuSO4, resulting in the formation of aldehydes, such as malondialdehyde (MDA). Upon incubation with thiobarbituric acid, the absorbance of the aldehydes can be detected at 530-540 nm. As stated in the previous example, TBARS values which are lower than control serum values indicate the relative ability of a test compound to inhibit the oxidation of lipids in a sample. Measure TBARS as follows: mix 100µL of serum with 400µL of a 5mmol CuSO4 solution and incubate at 37°C for 3 hr. Stop the reactions by addition of 1.0mL of 20% trichloroacetic acid. Then add 1.0mL of 0.67% thiobarbituric acid in 0.05 N sodium hydroxide, mix, and incubate the samples for 30 min at 90°C. Centrifuge samples briefly to pellet undissolved material, and transfer the supernatants to a 96-well microtiter plate. Measure absorbances at 540 nm using a Biotek model EL311 microplate reader. The nmoles of MDA produced are calculated from a standard curve of 0 to 10 nmoles of MDA prepared from malonaldehyde bis(dimethylacetal). Serum samples from treated rats are compared to serum samples from control rats that received no MDL compound.

[3] = Animal parameters (food, body weight, liver weight/body weight, mortality) in rats; type: in vivo; conditions: 4 days; for food / lw/bw / body wt.: % of control, diet 0.3%, N = 5; for food: grams eaten per day per rat; for lw/bw: liver weight/body weight; for lw/bw / body wt. / mortality: rat; for body wt.: weight in grams; for mortality: male, Sprague-Dawley, in vivo
Description: as §1

[4] = total cholesterol in rat serum, read-out: CHOL
[5] = triglycerides in rat serum, read-out: TRIG
[6] = parent compound concentration in rat liver, read-out: Liver Parent
[7] = parent compound concentration in rat serum, read-out: Serum Parent

CC(C)=CCC[C@H](C)CCOc1ccc(O)c(C(C)(C)C)c1 (stereo in doubt) [MDL 103,649, Phenol, 2-(1,1-dimethylethyl)-4-[(3,7-dimethyl-6-octenyl)oxy]-, (S)-]
CONJ. DIENE (oxidation of lipids): 375 min
ALT (Male Sprague-Dawley Rats): 119%
ALP (Male Sprague-Dawley Rats): 74%
AST (Male Sprague-Dawley Rats): 82%
GLUC (Male Sprague-Dawley Rats): 101%
response vs control in vivo at 0.3 % in diet (Male Sprague-Dawley Rats; [4]): 89%
response vs control in vivo at 0.3 % in diet (Male Sprague-Dawley Rats; [5]): 143%
concentration at 5 day [1, 6]: 0 ng/g
concentration at 5 day [1, 7]: 1400 ng/mL
TBARS [2]: 29%
food [3]: 95%
lw/bw [3]: 111%
body wt. [3]: 94%
mortality [3]: 0%

CC(C)=CCC[C@H](C)CCSc1ccc(O)c(C(C)(C)C)c1 [MDL 103,714, Phenol, 2-(1,1-dimethylethyl)-4-[(3,7-dimethyl-6-octenyl)thio]-, (S)-]
ALT (Male Sprague-Dawley Rats): 120%
ALP (Male Sprague-Dawley Rats): 111%
AST (Male Sprague-Dawley Rats): 104%
GLUC (Male Sprague-Dawley Rats): 95%
response vs control in vivo at 0.3 % in diet (Male Sprague-Dawley Rats; [4]): 90%
response vs control in vivo at 0.3 % in diet (Male Sprague-Dawley Rats; [5]): 122%
concentration at 5 day [1, 6]: 0 ng/g
concentration at 5 day [1, 7]: 2700 ng/mL
TBARS [2]: 21%
food [3]: 102%
lw/bw [3]: 121%
body wt. [3]: 103%
mortality [3]: 0%

CC(C)CCCC(C)CCOc1cc(C(C)(C)C)c(O)c(C(C)(C)C)c1 (stereo not shown) [MDL 104,102, Phenol, 2,6-bis(1,1-dimethylethyl)-4-[(3,7-dimethyloctyl)oxy]-]
CONJ. DIENE (oxidation of lipids): 229 min
ALT (Male Sprague-Dawley Rats): 114%
ALP (Male Sprague-Dawley Rats): 101%
AST (Male Sprague-Dawley Rats): 82%
GLUC (Male Sprague-Dawley Rats): 98%
response vs control in vivo at 0.3 % in diet (Male Sprague-Dawley Rats; [4]): 100%
response vs control in vivo at 0.3 % in diet (Male Sprague-Dawley Rats; [5]): 127%
concentration at 5 day [1, 6]: 481000 ng/g
concentration at 5 day [1, 7]: 32800 ng/mL
TBARS [2]: 71%
food [3]: 92%
lw/bw [3]: 121%
body wt. [3]: 97%
mortality [3]: 0%

CC(CCCC(C)(C)O)CCSc1cc(C(C)(C)C)c(O)c(C(C)(C)C)c1 (stereo not shown) [MDL 104,487, Phenol, 2,6-bis(1,1-dimethylethyl)-4-[(7-hydroxy-3,7-dimethyloctyl)thio]-]
ALT (Male Sprague-Dawley Rats): 129%
ALP (Male Sprague-Dawley Rats): 137%
AST (Male Sprague-Dawley Rats): 124%
GLUC (Male Sprague-Dawley Rats): 92%
response vs control in vivo at 0.3 % in diet (Male Sprague-Dawley Rats; [4]): 127%
response vs control in vivo at 0.3 % in diet (Male Sprague-Dawley Rats; [5]): 108%
concentration at 5 day [1, 6]: 3800 ng/g
concentration at 5 day [1, 7]: 4100 ng/mL
TBARS [2]: 87%
food [3]: 90%
lw/bw [3]: 150%
body wt. [3]: 95%
mortality [3]: 0%

CC(C)=CCCC(C)CCOc1ccc(O)c(C(C)(C)C)c1 (stereo not shown) [MDL 105,411, Phenol, 2-(1,1-dimethylethyl)-4-[(3,7-dimethyl-6-octenyl)oxy]-]
CONJ. DIENE (oxidation of lipids): 400 min
ALT (Male Sprague-Dawley Rats): 122%
ALP (Male Sprague-Dawley Rats): 76%
AST (Male Sprague-Dawley Rats): 87%
GLUC (Male Sprague-Dawley Rats): 96%
response vs control in vivo at 0.3 % in diet (Male Sprague-Dawley Rats; [4]): 105%
response vs control in vivo at 0.3 % in diet (Male Sprague-Dawley Rats; [5]): 100%
concentration at 5 day [1, 6]: 0 ng/g
concentration at 5 day [1, 7]: 1100 ng/mL
TBARS [2]: 29%
food [3]: 95%
lw/bw [3]: 114%
body wt. [3]: 101%
mortality [3]: 0%

CC(C)=CCC[C@H](C)CCOc1cc(C(C)(C)C)c(O)cc1C(C)(C)C [MDL 107,059, Phenol, 2,5-bis(1,1-dimethylethyl)-4-[(3,7-dimethyl-6-octenyl)oxy]-, (S)-]
CONJ. DIENE (oxidation of lipids): 201 min
ALT (Male Sprague-Dawley Rats): 116%
ALP (Male Sprague-Dawley Rats): 118%
AST (Male Sprague-Dawley Rats): 140%
GLUC (Male Sprague-Dawley Rats): 96%
response vs control in vivo at 0.3 % in diet (Male Sprague-Dawley Rats; [4]): 89%
response vs control in vivo at 0.3 % in diet (Male Sprague-Dawley Rats; [5]): 35%
concentration at 5 day [1, 6]: 0 ng/g
concentration at 5 day [1, 7]: 0 ng/mL
TBARS [2]: 78%
food [3]: 95%
lw/bw [3]: 107%
body wt. [3]: 95%
mortality [3]: 0%
